# Results from ChEMBL document CHEMBL1123019, “N-phenylpiperazine derivatives with hypocholesterolemic activity” (J Med Chem, 1985).
# Key:
# Mus musculus [1] = assay: Dose required for 50% reduction of spontaneous locomotory activity in mice when administered orally; type: functional; conditions: po
# Rattus norvegicus [2] = assay: Dose required for 50% reduction of plasma cholesterol in rat when administered orally (200 mg/kg maximal administered dose); type: functional; conditions: po
# [3] = Dose required for 50% lethality after intraperitoneal administration in mice; type: ADME, organism-based; conditions: mouse, in vivo, ip
# Rattus norvegicus [4] = assay: Dose required for 50% reduction of plasma cholesterol in rat when administered orally.; type: functional; conditions: po
# Rattus norvegicus [5] = assay: Percent increase in liver weight in plasma was evaluated 30 mg/kg in rat; type: functional
# Rattus norvegicus [6] = assay: Percent reduction of total cholesterol level in plasma was evaluated at dose 30 mg/kg in rat; type: functional
# Rattus norvegicus [7] = assay: Percent reduction of total cholesterol level in plasma was evaluated at dose 10 mg/kg in rat; type: functional
# Rattus norvegicus [8] = assay: Percent reduction of triglyceride level in plasma was evaluated 30 mg/kg in rat; type: functional
# Mus musculus [9] = assay: Dose required for 50% reduction of spontaneous locomotory activity in mice when administered orally (120 mg/kg is maximal dose administered); type: functional; conditions: po
# Rattus norvegicus [10] = assay: Percent reduction of total cholesterol level in plasma was evaluated at dose 100 mg/kg in rat; type: functional
# Rattus norvegicus [11] = assay: Percent reduction of phospholipid level in plasma was evaluated 30 mg/kg in rat; type: functional
# Rattus norvegicus [12] = assay: Percent reduction of triglyceride level in plasma was evaluated 100 mg/kg in rat; type: functional
# Rattus norvegicus [13] = assay: Percent reduction of total cholesterol level in plasma was evaluated at dose 3 mg/kg in rat; type: functional
# Rattus norvegicus [14] = assay: Percent reduction of phospholipid level in plasma was evaluated 100 mg/kg in rat; type: functional
# Rattus norvegicus [15] = assay: Percent increase in liver weight in plasma was evaluated 100 mg/kg in rat; type: functional
# Rattus norvegicus [16] = assay: Percent reduction of phospholipid level in plasma was evaluated 10 mg/kg in rat; type: functional
# Rattus norvegicus [17] = assay: Percent reduction of triglyceride level in plasma was evaluated 10 mg/kg in rat; type: functional
# Rattus norvegicus [18] = assay: Percent increase in liver weight in plasma was evaluated 10 mg/kg in rat; type: functional
# Rattus norvegicus [19] = assay: Percent reduction of triglyceride level in plasma was evaluated 300 mg/kg; in rat; type: functional
# Rattus norvegicus [20] = assay: Percent reduction of triglyceride level in plasma was evaluated 50 mg/kg in rat; type: functional
# Rattus norvegicus [21] = assay: Percent reduction of total cholesterol level in plasma was evaluated at dose 25 mg/kg in rat; type: functional
# Rattus norvegicus [22] = assay: Percent reduction of total cholesterol level in plasma was evaluated at dose 300 mg/kg in rat; type: functional
# Rattus norvegicus [23] = assay: Percent reduction of triglyceride level in plasma was evaluated 25 mg/kg in rat; type: functional
# Rattus norvegicus [24] = assay: Percent reduction of phospholipid level in plasma was evaluated 12.5 mg/kg in rat; type: functional
# Rattus norvegicus [25] = assay: Percent reduction of total cholesterol level in plasma was evaluated at dose 12.5 mg/kg in rat; type: functional
# Rattus norvegicus [26] = assay: Percent reduction of triglyceride level in plasma was evaluated 12.5 mg/kg in rat; type: functional
# Rattus norvegicus [27] = assay: Percent increase in liver weight in plasma was evaluated 300 mg/kg in rat; type: functional
# Rattus norvegicus [28] = assay: Percent increase in liver weight in plasma was evaluated 50 mg/kg in rat; type: functional
# Rattus norvegicus [29] = assay: Percent increase in liver weight in plasma was evaluated 25 mg/kg in rat; type: functional
# Rattus norvegicus [30] = assay: Percent reduction of phospholipid level in plasma was evaluated 25 mg/kg in rat; type: functional
# Rattus norvegicus [31] = assay: Percent reduction of total cholesterol level in plasma was evaluated at dose 50 mg/kg in rat; type: functional
# Rattus norvegicus [32] = assay: Percent increase in liver weight in plasma was evaluated 12.5 mg/kg in rat; type: functional
# Rattus norvegicus [33] = assay: Dose required for 50% reduction of plasma cholesterol in rat when administered orally.(100 mg/kg is maximal dose administered); type: functional; conditions: po
# Mus musculus [34] = assay: Dose required for 50% reduction of spontaneous locomotory activity in mice when administered orally (100 mg/kg is maximal dose administered); type: functional; conditions: po
# Rattus norvegicus [35] = assay: Dose required for 50% reduction of plasma cholesterol in rat when administered orally (100 mg/kg maximal administered dose); type: functional; conditions: po
# Mus musculus [36] = assay: Dose required for 50% reduction of spontaneous locomotory activity in mice when administered orally (200 mg/kg maximal administered dose); type: functional; conditions: po
# Rattus norvegicus [37] = assay: Dose required for 50% reduction of plasma cholesterol in rat when administered orally; type: functional; conditions: po
# Mus musculus [38] = assay: Dose required for 50% reduction of spontaneous locomotory activity in mice when administered orally (200 mg/kg is maximal dose administered); type: functional; conditions: po
# Rattus norvegicus [39] = assay: Dose required for 50% reduction of plasma cholesterol in rat when administered orally. (100 mg/kg is maximal dose administered); type: functional; conditions: po
# Rattus norvegicus [40] = assay: Dose required for 50% reduction of plasma cholesterol in rat when administered orally (45 mg/kg maximal administered dose); type: functional; conditions: po
# Rattus norvegicus [41] = assay: Percent reduction of triglyceride level in plasma was evaluated 300 mg/kg in rat; type: functional
# Rattus norvegicus [42] = assay: Percent reduction of total cholesterol level in plasma was evaluated 300 mg/kg in rat; type: functional
# Rattus norvegicus [43] = assay: Percent reduction of total cholesterol level in plasma was evaluated 100 mg/kg in rat; type: functional
# Rattus norvegicus [44] = assay: Percent reduction of phospholipid level in plasma was evaluated 300 mg/kg in rat; type: functional
smiles,measurement,setting,value
CC(C)(C)NC(=O)OC(CCN1CCN(c2ccccc2)CC1)C(=O)c1ccc(F)cc1 (stereo unspecified),ED50,Mus musculus [1],200 mg/kg
same,ED50,Rattus norvegicus [2],18 mg/kg
same,LD50,[3],> 1000 mg/kg
CC(=O)OC(CCN1CCN(c2ccccc2)CC1)C(=O)c1ccc(F)cc1.O=C(O)/C=C/C(=O)O (stereo unspecified),ED50,Rattus norvegicus [4],100 mg/kg
same,ED50,Mus musculus [1],56 mg/kg
same,LD50,[3],575 mg/kg
Cl.O=c1oc(CCN2CCN(c3cccc(Cl)c3)CC2)c(-c2ccc(F)cc2)o1,ED50,Mus musculus [1],46 mg/kg
same,LD50,[3],500 mg/kg
Cl.O=c1oc(CCN2CCN(c3ccccc3)CC2)c(-c2ccc(Cl)cc2)o1,ED50,Rattus norvegicus [4],11.3 mg/kg
same,Increase,Rattus norvegicus [5],13%
same,Reduction,Rattus norvegicus [6],72%
same,Reduction,Rattus norvegicus [7],48%
same,Reduction,Rattus norvegicus [8],22%
same,ED50,Mus musculus [9],31 mg/kg
same,Reduction,Rattus norvegicus [10],100%
same,Reduction,Rattus norvegicus [11],58%
same,Reduction,Rattus norvegicus [12],63%
same,Reduction,Rattus norvegicus [13],16%
same,Reduction,Rattus norvegicus [14],83%
same,Increase,Rattus norvegicus [15],28%
same,Reduction,Rattus norvegicus [16],14%
same,LD50,[3],865 mg/kg
same,Reduction,Rattus norvegicus [17],15%
same,Increase,Rattus norvegicus [18],3%
Cc1ccc(-c2oc(=O)oc2CCN2CCN(c3ccccc3)CC2)cc1.Cl,ED50,Rattus norvegicus [4],80 mg/kg
same,LD50,[3],> 1000 mg/kg
Cl.O=c1oc(CCN2CCN(c3ccccc3)CC2)c(-c2ccc(F)cc2)o1,ED50,Rattus norvegicus [4],18.6 mg/kg
same,ED50,Mus musculus [1],100 mg/kg
same,Reduction,Rattus norvegicus [19],82%
same,Reduction,Rattus norvegicus [20],36%
same,Reduction,Rattus norvegicus [21],57%
same,Reduction,Rattus norvegicus [22],97%
same,Reduction,Rattus norvegicus [23],20%
same,Reduction,Rattus norvegicus [24],19%
same,Reduction,Rattus norvegicus [25],39%
same,Reduction,Rattus norvegicus [10],85%
same,Reduction,Rattus norvegicus [12],27%
same,Reduction,Rattus norvegicus [26],12%
same,Increase,Rattus norvegicus [27],43%
same,Increase,Rattus norvegicus [28],12%
same,Reduction,Rattus norvegicus [14],75%
same,Increase,Rattus norvegicus [29],12%
same,Reduction,Rattus norvegicus [30],52%
same,Increase,Rattus norvegicus [15],33%
same,Reduction,Rattus norvegicus [31],76%
same,LD50,[3],936 mg/kg
same,Increase,Rattus norvegicus [32],9%
Cl.O=c1oc(CCN2CCN(c3cc(Cl)cc(Cl)c3)CC2)c(-c2ccc(F)cc2)o1,ED50,Rattus norvegicus [33],5 mg/kg
same,ED50,Mus musculus [34],16 mg/kg
same,LD50,[3],> 1000 mg/kg
Cl.O=c1oc(CCN2CCN(c3ccccc3)CC2)c(-c2ccccc2)o1,ED50,Rattus norvegicus [4],50 mg/kg
same,ED50,Mus musculus [1],50 mg/kg
same,LD50,[3],500 mg/kg
COc1cc(C(=O)OC(CCN2CCN(c3ccccc3)CC2)C(=O)c2ccc(F)cc2)cc(OC)c1OC.Cl (stereo unspecified),ED50,Rattus norvegicus [35],21 mg/kg
same,LD50,[3],> 1000 mg/kg
same,ED50,Mus musculus [36],13 mg/kg
Cl.O=C(c1ccc(F)cc1)C(O)CCN1CCN(c2ccccc2)CC1 (stereo unspecified),ED50,Rattus norvegicus [4],50 mg/kg
same,ED50,Mus musculus [1],35 mg/kg
same,LD50,[3],> 1000 mg/kg
Cl.O=c1oc(CCN2CCN(c3cccc(C(F)(F)F)c3)CC2)c(-c2ccc(F)cc2)o1,ED50,Mus musculus [1],200 mg/kg
same,LD50,[3],1000 mg/kg
CSc1ccc(-c2oc(=O)oc2CCN2CCN(c3ccccc3)CC2)cc1.Cl,ED50,Mus musculus [1],200 mg/kg
same,ED50,Rattus norvegicus [33],15 mg/kg
same,LD50,[3],> 1000 mg/kg
Cl.O=c1oc(CCCN2CCN(c3ccccc3)CC2)c(-c2ccc(F)cc2)o1,ED50,Rattus norvegicus [37],50 mg/kg
Cl.O=c1oc(CCN2CCN(c3ccccc3)CC2)c(-c2ccc(-c3ccccc3)cc2)o1,ED50,Mus musculus [38],29 mg/kg
same,LD50,[3],> 1000 mg/kg
Cl.O=c1oc(CCN2CCN(c3ccc(Cl)c(Cl)c3)CC2)c(-c2ccc(F)cc2)o1,ED50,Rattus norvegicus [39],20 mg/kg
same,ED50,Mus musculus [1],120 mg/kg
Cl.O=c1oc(CCN2CCN(c3ccc(Cl)cc3)CC2)c(-c2ccc(Cl)cc2)o1,ED50,Rattus norvegicus [33],8 mg/kg
same,LD50,[3],> 1000 mg/kg
COc1ccc(-c2oc(=O)oc2CCN2CCN(c3ccccc3)CC2)cc1.Cl,ED50,Mus musculus [1],75 mg/kg
same,ED50,Rattus norvegicus [33],25 mg/kg
same,LD50,[3],> 1000 mg/kg
COc1ccccc1N1CCN(CCc2oc(=O)oc2-c2ccc(F)cc2)CC1.Cl,ED50,Rattus norvegicus [39],25 mg/kg
same,ED50,Mus musculus [1],47 mg/kg
same,LD50,[3],350 mg/kg
CN(C)C(=O)OC(CCN1CCN(c2ccccc2)CC1)C(=O)c1ccc(F)cc1.Cl (stereo unspecified),ED50,Mus musculus [1],30 mg/kg
same,ED50,Rattus norvegicus [40],35 mg/kg
same,LD50,[3],150 mg/kg
CCOC(=O)C(C)(C)Oc1ccc(Cl)cc1 [CLOFIBRATE],Increase,Rattus norvegicus [5],3%
same,Reduction,Rattus norvegicus [6],31%
same,Reduction,Rattus norvegicus [41],-39%
same,Reduction,Rattus norvegicus [8],20%
same,Reduction,Rattus norvegicus [12],7%
same,Increase,Rattus norvegicus [27],51%
same,Reduction,Rattus norvegicus [14],23%
same,Reduction,Rattus norvegicus [42],43%
same,Reduction,Rattus norvegicus [15],21%
same,Reduction,Rattus norvegicus [43],46%
same,Reduction,Rattus norvegicus [44],-11%
